ChEMBL document CHEMBL1255507, “Azole derivatives as histamine H3 receptor antagonists, part 2: C-C and C-S coupled heterocycles” (Bioorg Med Chem Lett, 2010)

Assays:
Histamine H3 receptor [1] = biological target: T1, Histamine H3 receptor (Homo sapiens, UniProt Q9Y5N1); experiment: Displacement of [125I]Iodoproxyfan from human histamine H3 receptor expressed in HEK293 cells; type: cell-based
Histamine H3 receptor [2] = biological target: T1, Histamine H3 receptor; experiment: Displacement of [3H]Methylhistamine from human histamine H3 receptor expressed in HEK293 cells; type: cell-based

T1 sequence (Q9Y5N1 whole entry): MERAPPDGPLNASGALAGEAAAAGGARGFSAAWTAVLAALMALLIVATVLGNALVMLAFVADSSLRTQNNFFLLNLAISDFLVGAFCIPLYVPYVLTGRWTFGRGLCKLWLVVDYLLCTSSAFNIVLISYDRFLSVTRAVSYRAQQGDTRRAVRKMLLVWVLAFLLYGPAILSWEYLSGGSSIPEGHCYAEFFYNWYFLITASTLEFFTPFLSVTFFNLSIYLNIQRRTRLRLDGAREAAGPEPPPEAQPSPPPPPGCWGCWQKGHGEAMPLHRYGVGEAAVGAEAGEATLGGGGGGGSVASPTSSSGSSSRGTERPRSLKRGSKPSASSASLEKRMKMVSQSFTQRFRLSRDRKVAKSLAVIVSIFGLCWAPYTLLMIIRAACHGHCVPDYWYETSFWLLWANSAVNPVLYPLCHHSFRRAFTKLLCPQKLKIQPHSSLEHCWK

| Compound | Ki (Histamine H3 receptor [1]) [nM] | Ki (Histamine H3 receptor [2]) [nM] |
| --- | --- | --- |
| CC(=O)c1sc(SCCCN2CCCCC2)nc1C | > 1000 |  |
| c1ccc(-c2cnc(CCCCN3CCCCC3)o2)cc1 | 63 |  |
| c1cncc(-c2noc(CCCCN3CCCCC3)n2)c1 | 110 |  |
| c1ccc(-c2nc(SCCCN3CCCCC3)sc2-c2ccccc2)cc1 | 7.4 |  |
| c1ccc(-c2nc(SCCCN3CCCCC3)oc2-c2ccccc2)cc1 | 32 |  |
| c1cc(-c2nnc(SCCCN3CCCCC3)o2)ccn1 | 187 |  |
| c1cc(-c2nc(SCCCN3CCCCC3)nn2CCCN2CCCCC2)ccn1 |  | 18 |
| C1CCN(CCCOc2nc3c(s2)CN(CCCN2CCCCC2)CC3)CC1 | 20 |  |
